Assay results reported in PMC6152064 (Molecules : A Journal of Synthetic Chemistry and Natural …, 2017).
Where “and” joins values, the source holds several entries; their conditions need not be identical. Identical values can stand only once. Blank lines part the entries; values can stand above or below the compound they belong to.

Key:
[1] = biological target: T1, hGal8^CTD (C-terminal domain of human galectin-8) (Homo sapiens, UniProt O00214); assay: NMR titration, global fit of chemical shift perturbations (CSP); assay type: binding; settings: 298 K, global fit of CSPs > 2σ
T1 construct: the N-terminal and C-terminal domains of galectin-8 (hGal8^NTD and hGal8^CTD, respectively); made in house; host or cells: Escherichia coli BL21 (DE3)
T1 sequence (O00214 187-317 limits assumed): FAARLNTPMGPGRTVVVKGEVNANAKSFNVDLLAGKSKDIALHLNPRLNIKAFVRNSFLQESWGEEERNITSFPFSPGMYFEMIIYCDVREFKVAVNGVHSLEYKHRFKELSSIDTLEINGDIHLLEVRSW

hGal8^NTD [2] = biological target: T2, hGal8^NTD (Homo sapiens, UniProt O00214); assay: Isothermal titration calorimetry (ITC)
T2 sequence (O00214 1-155 limits assumed): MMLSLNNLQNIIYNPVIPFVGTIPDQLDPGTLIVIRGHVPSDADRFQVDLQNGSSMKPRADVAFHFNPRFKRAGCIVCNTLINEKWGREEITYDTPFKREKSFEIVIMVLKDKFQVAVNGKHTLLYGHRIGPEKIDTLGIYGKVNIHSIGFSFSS
Procedure: (§5) The experiments were carried out at 298 K and in PBS. […] The thermograms were extracted, processed and subjected to nonlinear regression using the built-in software based on Origin (OriginLab, Northampton, MA, USA) to determine the respective binding constants.

[3] = biological target: T3, hGal8^NTD (N-terminal domain of human galectin-8) (Homo sapiens, UniProt O00214); assay: 2D NMR lineshape analysis (TITAN), two-state binding model; settings: Lactose Kd, 298 K
T3 construct: hexahistidine tag (N); made in house; host or cells: Escherichia coli BL21 (DE3)
T3 sequence (O00214 1-155 limits assumed): T2 sequence (O00214 1-155 limits assumed)
Procedure: (§1) HSQC spectra were also analysed by the TITAN program using a two-state binding model. […] Eight peaks with significant CSPs were chosen to be fitted for each titration experiment. Error analysis was performed by the bootstrap resampling module in the program with 100 resampled spectra.

[4] = biological target: T1, hGal8^CTD (C-terminal domain of human galectin-8); assay: as above; settings: 298 K
Procedure: as §1

hGal8^CTD [5] = biological target: T4, hGal8^CTD (Homo sapiens, UniProt O00214); assay: Isothermal titration calorimetry (ITC)
T4 sequence (O00214 187-317 limits assumed): T1 sequence (O00214 187-317 limits assumed)
Procedure: as §5

[6] = biological target: T5, hGal8^full(NTD) (NTD of full-length galectin-8) (Homo sapiens, UniProt O00214); assay: NMR titration, global fit of chemical shift perturbations (CSP); settings: Lactose Kd, NTD of full-length hGal8 (tandem-repeat, 17-residue linker), 298 K
T5 sequence (O00214 1-317): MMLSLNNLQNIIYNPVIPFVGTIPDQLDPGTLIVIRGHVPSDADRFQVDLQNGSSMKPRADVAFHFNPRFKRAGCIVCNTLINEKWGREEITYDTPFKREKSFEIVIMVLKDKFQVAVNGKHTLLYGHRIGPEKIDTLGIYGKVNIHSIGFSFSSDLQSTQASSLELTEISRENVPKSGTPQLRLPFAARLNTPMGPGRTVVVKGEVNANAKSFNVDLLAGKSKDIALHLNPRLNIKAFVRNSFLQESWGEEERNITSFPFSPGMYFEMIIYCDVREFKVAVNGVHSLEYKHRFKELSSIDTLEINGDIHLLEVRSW

hGal8^NTD [7] = biological target: T2, hGal8^NTD; assay: Lactose binding affinity, summary over NMR, intrinsic fluorescence, BLI and ITC; set-up: hexahistidine tag (N); made in house; host or cells: Escherichia coli BL21 (DE3); settings: summary over the biophysical tools
Procedure: (§2) The samples were subjected to intrinsic fluorescence measurements using a 3 mm quartz cell (Hellma) and a fluorimeter (Jasco FP-8500, Hachioji, Tokyo, Japan). […] The resulting titration data were processed by SVD analysis, as described previously.
(§3) BLI experiments were carried out using an Octet Red96 system (FortéBio, Menlo Park, CA, USA), as described previously.
as §1

hGal7 (human galectin-7) [8] = biological target: T6, hGal7 (human galectin-7) (Homo sapiens, UniProt P47929); assay: Bio-layer interferometry (BLI), steady-state fit; assay type: binding; set-up: The constructs encoding the open reading frames of hGal1, hGal7 and hGal8 with a hexahistidine tag at the N-termini; hexahistidine tag (N); made in house; host or cells: Escherichia coli BL21 (DE3); settings: biotinylated galectin on SSA biosensor
Procedure: as §3

[9] = biological target: GST-fused tandem-repeat construct (hGal8); set-up: method as in PMID 12851289; settings: read-out: apparent lactose Kd (SPR); cited from earlier work
hGal8^NTD [10] = biological target: T2, hGal8^NTD; assay: Bio-layer interferometry (BLI), steady-state fit; assay type: binding; set-up: hexahistidine tag (N); made in house; host or cells: Escherichia coli BL21 (DE3); settings: biotinylated galectin on SSA biosensor
Procedure: as §3

[11] = biological target: T5, hGal8^full(NTD) (NTD of full-length galectin-8); assay: 2D NMR lineshape analysis (TITAN), two-state binding model; set-up: A full-length hGal8 (hGal8^full) variant encompassing a 17-residue linker was used; hexahistidine tag (N); made in house; host or cells: Escherichia coli BL21 (DE3); settings: NTD of full-length hGal8 (G127), 298 K
Procedure: (§4) The advantage of using NMR titration to determine Kd values is the ability to simultaneously characterise microscopy binding events at different binding sites. […] The same lineshape analysis was performed for hGal8^full titration experiments, which yielded similar Kd values to those derived from CSP data (Figure S2; Table 1).
as §1

[12] = biological target: T7, hGal8^full(CTD) (CTD of full-length galectin-8) (Homo sapiens, UniProt O00214); assay: as above; set-up: A full-length hGal8 (hGal8^full) variant encompassing a 17-residue linker was used; hexahistidine tag (N); made in house; host or cells: Escherichia coli BL21 (DE3); settings: CTD of full-length hGal8 (N215), 298 K
T7 sequence (O00214 1-317): T5 sequence (O00214 1-317)
Procedure: as §4, §1

hGal7 (human galectin-7) [13] = biological target: T6, hGal7 (human galectin-7); assay: NMR titration, global fit of chemical shift perturbations (CSP); assay type: binding; set-up: The constructs encoding the open reading frames of hGal1, hGal7 and hGal8 with a hexahistidine tag at the N-termini; hexahistidine tag (N); made in house; host or cells: Escherichia coli BL21 (DE3); settings: 298 K, global fit of CSPs > 2σ
[14] = biological target: T3, hGal8^NTD (N-terminal domain of human galectin-8); assay: as above; assay type: binding; settings: 298 K, global fit of CSPs > 2σ
hGal8^CTD [15] = biological target: T4, hGal8^CTD; assay: Lactose binding affinity, summary over NMR, intrinsic fluorescence, BLI and ITC; set-up: hGal8 N-terminal domain (hGal8^NTD) and C-terminal domain (hGal8^CTD); made in house; host or cells: Escherichia coli BL21 (DE3); settings: summary over the biophysical tools
Procedure: as §2, §3, §1

[16] = biological target: glutathione-S-transferase (GST)-fused hGal8^NTD; set-up: method as in PMID 12851289; settings: read-out: lactose Kd (SPR); cited from earlier work
hGal8^CTD [17] = biological target: T4, hGal8^CTD; assay: Bio-layer interferometry (BLI), steady-state fit; assay type: binding; set-up: hGal8 N-terminal domain (hGal8^NTD) and C-terminal domain (hGal8^CTD); made in house; host or cells: Escherichia coli BL21 (DE3); settings: biotinylated galectin on SSA biosensor
Procedure: as §3

GST-fused hGal8^CTD = biological target: GST-fused hGal8^CTD; set-up: method as in PMID 12851289; settings: read-out: lactose Kd (SPR); cited from earlier work
hGal8^CTD [18] = biological target: T4, hGal8^CTD; assay: Intrinsic tryptophan fluorescence titration (SVD analysis); assay type: binding; set-up: hGal8 N-terminal domain (hGal8^NTD) and C-terminal domain (hGal8^CTD); made in house; host or cells: Escherichia coli BL21 (DE3); settings: 298 K, PBS, 10 μM protein
Description: as §2

hGal8^NTD [19] = biological target: T2, hGal8^NTD; assay: as above; assay type: binding; set-up: hexahistidine tag (N); made in house; host or cells: Escherichia coli BL21 (DE3); settings: 298 K, PBS, 10 μM protein
Description: as §2

hGal7 = biological target: T8, hGal7 (Homo sapiens, UniProt P47929); assay: Lactose binding affinity, summary over NMR, intrinsic fluorescence, BLI and ITC
T8 construct: The constructs encoding the open reading frames of hGal1, hGal7 and hGal8 with a hexahistidine tag at the N-termini; hexahistidine (N); made in house; host or cells: Escherichia coli BL21 (DE3)
Procedure: as §2, §3, §1

hGal7 (human galectin-7) [20] = biological target: T6, hGal7 (human galectin-7); assay: Isothermal titration calorimetry (ITC)
Procedure: as §5

[21] = biological target: T7, hGal8^full(CTD) (CTD of full-length galectin-8); assay: NMR titration, global fit of chemical shift perturbations (CSP); settings: Lactose Kd, CTD of full-length hGal8 (tandem-repeat, 17-residue linker), 298 K
hGal7 (human galectin-7) [22] = biological target: T6, hGal7 (human galectin-7); assay: 2D NMR lineshape analysis (TITAN), two-state binding model; set-up: The constructs encoding the open reading frames of hGal1, hGal7 and hGal8 with a hexahistidine tag at the N-termini; hexahistidine tag (N); made in house; host or cells: Escherichia coli BL21 (DE3); settings: 298 K
Procedure: as §1

hGal1 (human galectin-1) = hGal1 (human galectin-1) (Homo sapiens, UniProt P09382); assay: Isothermal titration calorimetry (ITC); settings: 298 K, PBS
Procedure: as §5

hGal7 (human galectin-7) [23] = biological target: T6, hGal7 (human galectin-7); assay: Intrinsic tryptophan fluorescence titration (SVD analysis); assay type: binding; set-up: The constructs encoding the open reading frames of hGal1, hGal7 and hGal8 with a hexahistidine tag at the N-termini; hexahistidine tag (N); made in house; host or cells: Escherichia coli BL21 (DE3); settings: Lactose Kd, 298 K, PBS, 10 μM protein
Description: as §2

hGal3 = settings: cited from earlier work

T6 sequence (P47929 whole entry): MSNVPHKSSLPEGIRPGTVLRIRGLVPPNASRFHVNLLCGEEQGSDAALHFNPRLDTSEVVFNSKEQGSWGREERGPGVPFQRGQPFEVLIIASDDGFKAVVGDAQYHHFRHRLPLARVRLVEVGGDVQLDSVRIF
hGal1 (human galectin-1), sequence (P09382 whole entry): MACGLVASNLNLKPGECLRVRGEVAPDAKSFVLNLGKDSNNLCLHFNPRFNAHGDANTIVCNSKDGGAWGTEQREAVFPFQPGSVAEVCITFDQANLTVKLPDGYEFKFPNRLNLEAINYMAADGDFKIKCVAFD
T8 sequence (P47929 whole entry): as the sequence (P47929 whole entry) above

Kd [1]: 664 ± 59 µM
Kd (hGal8^NTD [2]): 93 ± 1 µM
K (binding constant, ITC OneSites model) (hGal8^NTD [2]; hGal8^NTD, 298 K, PBS): 1.08E4 ± 121 M-1
N (ITC OneSites model) (hGal8^NTD [2]; hGal8^NTD, 298 K, PBS): 0.818 ± 0.0154 sites
ΔH (ITC OneSites model) (hGal8^NTD [2]; hGal8^NTD, 298 K, PBS): -1.466E4 ± 302.2 cal/mol
ΔS (ITC OneSites model) (hGal8^NTD [2]; hGal8^NTD, 298 K, PBS): -30.7 cal/mol/deg
Kd [3]: 86.3 µM and 86 µM
Kd [4]: 950 ± 10 µM
Kd (hGal8^CTD [5]): 893 ± 25 µM
K (binding constant, ITC OneSites model) (hGal8^CTD [5]; hGal8^CTD, 298 K, PBS): 1.12E3 ± 31.0 M-1
N (ITC OneSites model) (hGal8^CTD [5]; hGal8^CTD, 298 K, PBS): 1.68 ± 0.212 sites
ΔH (ITC OneSites model) (hGal8^CTD [5]; hGal8^CTD, 298 K, PBS): -3.045 ± 0.4012 kcal/mol
ΔS (ITC OneSites model) (hGal8^CTD [5]; hGal8^CTD, 298 K, PBS): 3.74 cal/mol/deg
Kd [6]: ~130 µM and 128 µM
Kd (hGal8^NTD [7]): 84 to 93 µM and 80 µM
Kd (hGal7 (human galectin-7) [8]): 347 ± 180 µM
Kd (hGal8^NTD [10]): 89 ± 26 µM
Kd [11]: 167 ± 7 µM
Kd [12]: 1186 ± 11 µM
Kd (hGal7 (human galectin-7) [13]): 397 ± 14 µM
Kd [14]: 84 ± 9 µM
Kd (hGal8^CTD [15]): 664 to 950 µM and 800 µM
Kd (hGal8^CTD [17]): 873 ± 526 µM
Kd (hGal8^CTD [18]): 772 ± 56 µM
Kd (hGal8^NTD [19]): 88 ± 2 µM
Kd (hGal7): ~350 µM
Kd (hGal7 (human galectin-7) [20]): 323 µM
N (ITC OneSites model) (hGal7 (human galectin-7) [20]; hGal7, 298 K, PBS): 0.0702 ± 0.00475 sites
ΔH (ITC OneSites model) (hGal7 (human galectin-7) [20]; hGal7, 298 K, PBS): -1.883E4 ± 1326 cal/mol
ΔS (ITC OneSites model) (hGal7 (human galectin-7) [20]; hGal7, 298 K, PBS): -47.2 cal/mol/deg
Kd [21]: ~1500 µM and 1480 µM
Kd (hGal7 (human galectin-7) [22]): 352 ± 9 µM
N (ITC OneSites model) (hGal1 (human galectin-1)): 1.51 ± 0.113 sites
ΔH (ITC OneSites model) (hGal1 (human galectin-1)): -5.772 ± 0.4897 kcal/mol
ΔS (ITC OneSites model) (hGal1 (human galectin-1)): -2.53 cal/mol/deg
Kd (hGal7 (human galectin-7) [23]): 340 µM and 331 µM
Compound: OC[C@H]1O[C@@H](O[C@H]2[C@H](O)[C@@H](O)C(O)O[C@@H]2CO)[C@H](O)[C@@H](O)[C@H]1O (mixture of isomers) [Lactose, lactose]
Kd [9]: 140 µM
Kd [16]: 80 µM
Kd (GST-fused hGal8^CTD): 440 µM

Compound: OC[C@H]1O[C@@H](S[C@@H]2O[C@H](CO)[C@H](O)[C@H](n3cc(-c4cccc(F)c4)nn3)[C@H]2O)[C@H](O)[C@@H](n2cc(-c3cccc(F)c3)nn2)[C@H]1O [TD139]
Kd (hGal3): low nanomolar
